Assay results from ChEMBL document CHEMBL1121510, “Resolution, absolute configuration, and antiarrhythmic properties of the enantiomers of disopyramide, 4-(diisopropylamino)-2-(2-pyridyl)-2-phenylbutyramide” (1980).

Columns and labels:
Oryctolagus cuniculus [1] = species: Oryctolagus cuniculus; assay: Antiarrhythmic activity expressed as change in effective refractory period (DeltaERP) induced in rabbit ventricle by the Enantiomeric Disopyramide Bitartrates at a concentration of 3.0x10E-6M; format: functional, Heart
Oryctolagus cuniculus [2] = species: Oryctolagus cuniculus; assay: Antiarrhythmic activity expressed as change in effective refractory period (DeltaERP) induced in rabbit ventricle by the Enantiomeric Disopyramide Bitartrates at a concentration of 1.5x10E-5M.; format: functional, Heart

Compound	Delta ERP (Oryctolagus cuniculus [1]) [ms]	Delta ERP (Oryctolagus cuniculus [2]) [ms]
CC(C)N(CC[C@](C(N)=O)(c1ccccc1)c1ccccn1)C(C)C [(S)-DISOPYRAMIDE]	21.8	41.2
CC(C)N(CC[C@@](C(N)=O)(c1ccccc1)c1ccccn1)C(C)C [DISOPIRAMIDE]	25.8	50.5
